Experimental data: patent US12433877B2, “Sustained release drug delivery systems and related methods” (Durect Corporation, priority 2021, dated 2025)
Where a name gives a salt, the structure may show the parent alone.

Tested on: patients undergoing elective arthroscopic shoulder surgery
Assay: Example 1 / Study 1: adverse events and 6-month follow-up safety
Type: in vivo, human
Description: The incidence of adverse events (AEs); the incidence of bupivacaine-related CNS side effects; clinical laboratory tests; vital signs; 12-lead ECGs; and physical examinations.
Evaluation by the investigator of wound healing and tissue conditions at the surgical wound on Days 7 and 14, and at the 6-month follow-up visit. An MRI of the shoulder as well as a functionality assessment of the shoulder using the Constant-Murley score were to be performed at the 6-month follow-up visit.
There were three studies evaluating the safety of Formulation A administered during shoulder surgery. […]
Additional follow-up safety data consisting of shoulder MRI, physical examination of the shoulder, and assessments of wound healing were collected at 6 months in Study 1 and at 18 months in Study 2. […]

## CCCCN1CCCCC1C(=O)Nc1c(C)cccc1C (centres unmarked) [Bupivacaine HCl]
6-month follow-up
  Constant-Murley score decreased from baseline: (0%)
  Constant-Murley score, follow-up, mean: 65.6
  Shoulder MRI: Improved compared with pre-surgical MRI: (24.0%)
  Shoulder MRI: No change compared with pre-surgical MRI: (36.0%)
  Shoulder MRI: Worsened compared with pre-surgical MRI: (40%)
Table 4.1, Study 1
  Adverse reaction: Electrocardiogram T wave inversion: 0%
  Adverse reaction: Headache: 1 (3.4%)
  Adverse reaction: Hypoesthesia: 1 (3.4%)
  Adverse reaction: Pruritus generalized: 0%
Safety population
  All TEAEs: 37.9%
  TEAE: Alanine aminotransferase increased: 0.0%
  TEAE: Cardiac disorders: 10.3%
  TEAE: Gastrointestinal disorders: 3.4%
  TEAE: General disorders and administration site conditions: 0.0%
  TEAE: Headache: 3.4%
  TEAE: Injury, poisoning and procedural complications: 0.0%
  TEAE: Investigations: 6.9%
  TEAE: Musculoskeletal and connective tissue disorders: 6.9%
  TEAE: Musculoskeletal pain: 6.9%
  TEAE: Nausea: 3.4%
  TEAE: Nervous system disorders: 13.8%
  TEAE: Respiratory, thoracic and mediastinal disorders: 6.9%
  TEAE: Skin and subcutaneous tissue disorders: 6.9%
